# Results taken from paper PMC6403271, “Characterization, mechanism of action and optimization of activity of a novel peptide-peptoid hybrid against bacterial pathogens involved in canine skin infections” (Scientific Reports, 2019).
# Square brackets hold non-standard residues; d marks the D form. Peptide text beside a SMILES is read from it. 1Nal = N[C@@H](Cc1cccc2ccccc12)C(=O)O; d1Nal = N[C@H](Cc1cccc2ccccc12)C(=O)O; d2Nal = N[C@H](Cc1ccc2ccccc2c1)C(=O)O; Nle = CCCC[C@H](N)C(=O)O
# Experiments:
# [1] = system: MSSA (ATCC 29213); format: cell-based, Staphylococcus aureus; conditions: ATCC 29213, 18 h
# Method: (§1) Activity of B1 was tested on 50P. aeruginosa isolates and 57S. pseudintermedius isolates (including 7 MRSP) that had been isolated in the diagnostic laboratory Sund Vet Diagnostik (University of Copenhagen) from various infections in dogs between 2009 and 2011. Representative MRSP (C22963), MSSA, and P. aeruginosa (26314) were used for testing the first set of B1 analogues.
# (§2) MIC determination was performed by broth microdilution according to the Clinical and Laboratory Standard Institute (CLSI, M31-A3, 2008)[62]. In brief, each bacterial strain was diluted to concentration of 5 × 10^5 CFU/mL in Mueller Hinton broth II (MHB II) media (Oxoid) and added to a two-fold serial dilution of peptides and peptide-peptoid hybrids concentrations ranging from 1 to 64 µg/ml in 96-well plates (Nunc Internationals, Rochester, NY). The MICs were determined as a lowest concentration showing no visible growth after incubation for 18 hours at 37 °C. Experiments were performed in triplicates on two different days.
# [2] = system: MRSP C22963; format: cell-based, Staphylococcus pseudintermedius; conditions: 18 h
# Method: as §1, §2
# [3] = system: P. aeruginosa (26314); format: cell-based, Pseudomonas aeruginosa; conditions: 26314, 18 h
# Method: Activity of B1 was tested on […]. aeruginosa isolates and […]. pseudintermedius isolates (including 7 MRSP) that had been isolated in the diagnostic laboratory Sund Vet Diagnostik (University of Copenhagen) from various infections in dogs between 2009 and 2011. Representative […], and P. aeruginosa (26314) were used for testing the first set of B1 analogues. For antibacterial spectrum the following strains were used: Corynebacterium auriscanis, 31551, (54 C6, dog, ear, 2013); Enterococcus faecalis, 27404, (17 C7, dog, wound, 2011); Enterococcus faecium, 30951, (24 C1, dog, ear, 2013); Streptococcus canis, 26740-1, (14 H1, dog, ear, 2010); Staphylococcus aureus, 27266, (16 G9, dog, skin, 2010); Staphylococcus aureus, 27266, (16 G9, dog, skin, 2010); Staphylococcus pseudintermedius 22963, (3 B9, dog, 2007). Acinetobacter baumannii, 27065, (16 D1, dog, wound, 2010); E. coli, 30235, 23 A6, dog, wound, 2012; Klebsiella pneumoniae, 26233, (11 H5, dog, wound, 2010); Pasteurella canis, 31096, (24 C8, dog, skin, 2013); Proteus mirabilis, 25178, (9 A4, dog, ear, 2009); Pseudomonas aeruginosa 26314, 12 C5, dog, urine, 2010). MIC determination was performed by broth microdilution according to the Clinical and Laboratory Standard Institute (CLSI, […]-A3, 2008)[62]. In brief, each bacterial strain was diluted to concentration of 5 × 10^5 CFU/mL in Mueller Hinton broth II (MHB II) media (Oxoid) and added to a two-fold serial dilution of peptides and peptide-peptoid hybrids concentrations ranging from 1 to 64 μg/ml in 96-well plates (Nunc Internationals, Rochester, NY). The MICs were determined as a lowest concentration showing no visible growth after incubation for 18 hours at 37 °C. Experiments were performed in triplicates on two different days.
# [4] = format: cell-based, human; conditions: human
# Method: (§3) Briefly, two-fold serial dilutions (2.35 to 150 μM) of compounds in phosphate buffer saline (PBS) were mixed with equal volume of 0.5% v/v suspension of fresh human red blood cells (RBC) in the same buffer. After 1 h incubation at 37 °C, plates were centrifuged and aliquots of the supernatants were transferred to clear 96-well plates. Absorbance at 414 nm was measured and normalized using a negative (PBS, 0%) and a positive (melittin, 100%) control. The EC10 and EC50 are concentrations at which 10% and 50% of RBC were lysed, respectively, as interpolated graphically by the y-axis intersection of the plotted data.
# [5] = system: human red blood cells; format: cell-based; conditions: for EC50: red cells of human, 1 h
# Method: as §3
Structure (SMILES),EC50 [5] [µM],Minimum Inhibitory Concentration MSSA (ATCC 29213) [1] [µg/mL],Minimum Inhibitory Concentration MRSP C22963 [2] [µg/mL],Minimum Inhibitory Concentration P. aeruginosa (26314) [3] [µg/mL],"hemolysis at 1 h, 150 µM [4] [%]",Haemolysis EC10 [5] [µM]
"CC(C)C[C@@H](NC(=O)[C@H](CCCCN)NC(=O)[C@@H](N)CCCCN)C(=O)N[C@@H](CCCCN)C(=O)N[C@H](Cc1ccc2ccccc2c1)C(=O)N[C@H](Cc1ccccc1)C(=O)N[C@H](Cc1ccc2ccccc2c1)C(N)=O [Compound 17, Lys-Lys-leu-Lys-(2-Nal)ala-phe-(2-Nal)ala] (H-KK[dL]K[d2Nal][dF][d2Nal]-NH2; N-terminus assumed)",,16,8,32,40,8
"CC(C)C[C@@H](NC(=O)[C@@H](Cc1cccc2ccccc12)NC(=O)[C@@H](Cc1ccccc1)NC(=O)[C@H](N)Cc1cccc2ccccc12)C(=O)N[C@@H](CCCCN)C(=O)N[C@@H](CCCCN)C(=O)N[C@@H](CCCCN)C(N)=O [Compound 21, (1-Nal)ala-phe-(1-Nal)ala-leu-Lys-Lys-Lys] (H-[d1Nal][dF][d1Nal][dL]KKK-NH2; N-terminus assumed)",,32,16,32,< 8,

# Continued, in another order:
EC50 [5] [µM],Structure (SMILES),Minimum Inhibitory Concentration MSSA (ATCC 29213) [1] [µg/mL],Minimum Inhibitory Concentration MRSP C22963 [2] [µg/mL],Minimum Inhibitory Concentration P. aeruginosa (26314) [3] [µg/mL],"hemolysis at 1 h, 150 µM [4] [%]",Haemolysis EC10 [5] [µM]
128,"CC(C)C[C@@H](NC(=O)[C@H](CCCCN)NC(=O)[C@@H](N)CCCCN)C(=O)N[C@@H](CCCCN)C(=O)N[C@H](Cc1cccc2ccccc12)C(=O)N[C@H](Cc1ccccc1)C(=O)N[C@H](Cc1cccc2ccccc12)C(N)=O [Compound 14, Lys-Lys-leu-Lys-(1-Nal)ala-phe-(1-Nal)ala] (H-KK[dL]K[d1Nal][dF][d1Nal]-NH2; N-terminus assumed)",16,4 to 8,16 to 32,58,28
40,"CC(C)C[C@@H](NC(=O)[C@H](CCCCN)NC(=O)[C@H](CCCCN)NC(=O)[C@@H](N)CCCCN)C(=O)N[C@H](Cc1cccc2ccccc12)C(=O)N[C@H](Cc1ccccc1)C(=O)N[C@H](Cc1cccc2ccccc12)C(N)=O [Compound 15, Lys-Lys-Lys-leu-(1-Nal)ala-phe-(1-Nal)ala] (H-KKK[dL][d1Nal][dF][d1Nal]-NH2; N-terminus assumed)",8,2,8,88,8
118,"CC(C)C[C@@H](NC(=O)[C@H](CCCCN)NC(=O)[C@H](CCCCN)NC(=O)[C@@H](N)CCCCN)C(=O)N[C@H](Cc1ccc2ccccc2c1)C(=O)N[C@H](Cc1ccccc1)C(=O)N[C@H](Cc1ccc2ccccc2c1)C(N)=O [Compound 16, Lys-Lys-Lys-leu-(2-Nal)ala-phe-(2-Nal)ala] (H-KKK[dL][d2Nal][dF][d2Nal]-NH2; N-terminus assumed)",8 to 16,2 to 4,32,60,18
41,"CCCC[C@H](NC(=O)[C@H](CCCCN)NC(=O)[C@H](CCCCN)NC(=O)[C@@H](N)CCCCN)C(=O)N[C@@H](Cc1cccc2ccccc12)C(=O)N[C@@H](Cc1ccccc1)C(=O)N[C@@H](Cc1cccc2ccccc12)C(N)=O [Compound 24, Lys-Lys-Lys-Nle-(1-Nal)Ala-Phe-(1-Nal)Ala] (H-KKK[Nle][1Nal]F[1Nal]-NH2; N-terminus assumed)",>64,16 to 32,16,60,3
